Source: patent US4895844A, “Indole alkaloid compositions and their methods of use” (Harbor Branch Oceanographic Institution, Inc., priority 1989, dated 1990)
Converted amounts (≈) assume the structure as drawn.

Assays:
Format in all cases: cell-based
[1] = tested on: P388 mouse leukemia cells; experiment: P388 mouse leukemia cell assay; conditions: 48 hours
Procedure: P388 MOUSE LEUKEMIA CELL ASSAY
P388 mouse leukemia cells are grown in Dulbecco MEM medium with 10% horse serum, 4 mM glutamine, and 20 ug/ml gentamycin (Biologos, Inc.). Cells are incubated in 10% CO2 and subcultured 2 times per week.
1. Add composition to each well of a 24-well plate or tube and allow solvent to evaporate to dryness.
2. Add 2 ml (1.2×10^5) cells to each well or tube and mix.
3. Incubate in 10% CO2 at 37° for 48 hours.
4. Read plates with an inverted microscope, scoring activity from 1+ to 4+ as follows: ND (not detectable), >90%; 1+, 75-90%; 2+, 50-74%; 3+, 25-49%; 4+, <25% of control growth. Alternatively, the activity may be designated as IC50 concentration which is the concentration of composition required to inhibit 50% of cell growth on the plate.
Cell counts are performed on each tube and results are reported as percent of control.

[2] = tested on: HCT-8 human colon tumor cells; experiment: Human tumor cell line assay, HCT-8 (colon); conditions: 120 hours, read-out: Activity at prescribed doses
Procedure: (§1) HUMAN TUMOR CELL LINE ASSAY
(§2) Maintenance of Cell Line HCT-8 human colon tumor cells are grown in RPMl 1640 medium (GIBCO). A-549 human lung carcinoma cells and MD-AMB-231 human breast cancer cells are cultured in Dulbecco medium (Biologos, Inc.). All media are supplemented with 10% fetal bovine serum and contain 50 ug/ml gentamycin. All human tumor cell lines are incubated at 5% CO2 at 37° and subcultured once a week. The seeding levels are 350,000 MCF-7 cells, 60,000 HCT-8 cells and 300,000 A-549 cells per T-25 Flask. Vinblastine is used as a positive control.
(§3) 2. Incubate in a CO2 -incubator for 48 hours.
(§4) 3. Add composition to each well and incubate for an additional 120 hours.
(§5) 4. Discard medium and stain with methylene blue (HCT-8) or crystal violet (A-549 and MD-AMB-231).
(§6) 5. Compare cell density of drug-treated well with that of the control (no drug added) as follows: ND (not detectable), >90%; 1+, 75-90%; 2+, 50-74%; 3+, 25-49%, 4+, >25% of control growth.

[3] = tested on: MD-AMB-231 human breast cancer cells; experiment: Human tumor cell line assay, MD-AMB-231 (mammary); conditions: 120 hours, read-out: Activity at prescribed doses
Procedure: as §1, §2, §3, §4, §5, §6

[4] = tested on: A-549 human lung carcinoma cells; experiment: Human tumor cell line assay, A-549 (lung); conditions: 120 hours, read-out: Activity at prescribed doses
Procedure: as §1, §2, §3, §4, §5, §6

SMILES: CN1CC(c2c[nH]c3c(Br)c(Br)cc(O)c23)NCC1c1c[nH]c2cc(Br)ccc12 (stereo not shown) [Biemnidin (1), biemnidin]
- IC50 [1]: 15 µg/mL (≈ 25.7 µM)
- activity at 1 µg/mL ([2]; HCT-8, 1 μg/ml): > 90%
- activity at 10 µg/mL ([2]; HCT-8, 10 μg/ml): > 25%
- activity at 50 µg/mL ([2]; HCT-8, 50 μg/ml): > 25%
- activity at 1 µg/mL ([3]; MDA-MB-231, MD-AMB-231, 1 μg/ml): > 90%
- activity at 10 µg/mL ([3]; MDA-MB-231, MD-AMB-231, 10 μg/ml): > 25%
- activity at 50 µg/mL ([3]; MDA-MB-231, MD-AMB-231, 50 μg/ml): > 25%
- activity at 1 µg/mL ([4]; A549, A-549, 1 μg/ml): > 90%
- activity at 10 µg/mL ([4]; A549, A-549, 10 μg/ml): > 25%
- activity at 50 µg/mL ([4]; A549, A-549, 50 μg/ml): > 25%
